In ChEMBL document CHEMBL1201862, “PubChem BioAssay data set” (2004):
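Cells were grown in 96-well plates and exposed to each compound for 48 hours at five concentrations; endpoints were interpolated linearly between bracketing concentrations, or set to the highest concentration if not reached. The concentration for 50% growth inhibition is given as GI50.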 The source made the active and inactive calls. No stated cut-off is given here; in the data, active = GI50 up to about 1.1 µM and inactive = higher.

Tests used:
Assay in all cases: inhibition of tumour cell growth, NCI panel, 48 h
ACHN = system: ACHN
COLO 205 = system: COLO 205
HL-60 = system: HL-60
MOLT-4 = system: MOLT-4
Malme-3M = system: Malme-3M
NCI-H226 = system: NCI-H226
OVCAR-3 = system: OVCAR-3
SF-268 = system: SF-268
SK-OV-3 = system: SK-OV-3
U-251 = system: U-251
786-0 = system: 786-0
SK-MEL-28 = system: SK-MEL-28
SK-MEL-2 = system: SK-MEL-2
UACC-257 = system: UACC-257
UO-31 = system: UO-31
RXF 393 = system: RXF 393

Compound | GI50 (ACHN) | GI50 (COLO 205) | GI50 (HL-60) | GI50 (MOLT-4) | GI50 (Malme-3M) | GI50 (NCI-H226) | GI50 (OVCAR-3) | GI50 (SF-268) | GI50 (SK-OV-3) | GI50 (U-251) | GI50 (786-0) | GI50 (SK-MEL-28) | GI50 (SK-MEL-2) | GI50 (UACC-257) | GI50 (UO-31) | GI50 (RXF 393)
O=C(NC(=O)c1cn(CCN2CCNCC2)c(=O)[nH]c1=O)OCc1ccccc1 | > 100 µM (inactive) | > 100 µM (inactive) | > 100 µM (inactive) | > 100 µM (inactive) | > 100 µM (inactive) | > 100 µM (inactive) | > 100 µM (inactive) | > 100 µM (inactive) | > 100 µM (inactive) | > 100 µM (inactive) |  |  |  |  |  | 
CCOC(=O)c1ccn2c(c1)c(C#N)c1nc3ccccc3nc12 | 55.5 µM (inactive) | 48.2 µM (inactive) | 38.8 µM (inactive) | 18.1 µM (inactive) | 76 µM (inactive) |  | > 100 µM (inactive) | > 100 µM (inactive) | 55.1 µM (inactive) | 76.7 µM (inactive) | > 100 µM (inactive) | > 100 µM (inactive) | > 100 µM (inactive) | > 100 µM (inactive) | 42.4 µM (inactive) | 
CC(=O)NNc1nc(C)c(C(=O)NNC(=O)C(=O)Nc2c(C)cccc2C(C)C)s1 | 60.1 µM (inactive) | > 100 µM (inactive) | 46.7 µM (inactive) | 44.4 µM (inactive) | 59.3 µM (inactive) | 79.4 µM (inactive) | 36.9 µM (inactive) | 59.6 µM (inactive) | > 100 µM (inactive) | 5.97 µM (inactive) | > 100 µM (inactive) | > 100 µM (inactive) | > 100 µM (inactive) | 64.3 µM (inactive) | > 100 µM (inactive) | 
COCC1N=C(c2cc(OC)c(OC)c(OC)c2-c2cc3c(cc2[C@H](C)O)OCO3)O[C@H]1c1ccccc1 (stereo partly drawn) | 40.7 µM (inactive) | 30.1 µM (inactive) | > 10 µM (inactive) | 41.6 µM (inactive) |  | > 100 µM (inactive) | 47.4 µM (inactive) |  | > 100 µM (inactive) | 65.2 µM (inactive) | > 100 µM (inactive) | 59.2 µM (inactive) | 36.7 µM (inactive) |  | 58.6 µM (inactive) | 
Cc1ccccc1/N=N/C(C(=O)c1ccccc1)C(=O)c1ccccc1 | 27.4 µM (inactive) | 33.7 µM (inactive) | 11.9 µM (inactive) | 13.4 µM (inactive) | 31.7 µM (inactive) | 11.7 µM (inactive) | 24.9 µM (inactive) | 23.3 µM (inactive) | 41.6 µM (inactive) | 16 µM (inactive) | 25.4 µM (inactive) | 24 µM (inactive) | 19.7 µM (inactive) | 26.7 µM (inactive) | 17.2 µM (inactive) | 
CCOc1ccc(/N=N/c2ccc3oc(=O)c(/C(C)=N\NC(=O)CC(=O)Nc4ccc(Cl)cc4)cc3c2)cc1 | 22.4 µM (inactive) | 30.5 µM (inactive) |  | 4.09 µM (inactive) | 16 µM (inactive) | 88.9 µM (inactive) | 15.5 µM (inactive) | 19.6 µM (inactive) | 19.9 µM (inactive) | 16.4 µM (inactive) |  | 36.1 µM (inactive) | 3.43 µM (inactive) |  | 12.2 µM (inactive) | 14.2 µM (inactive)
C[C@]12CCC(=O)C=C1CC[C@@H]1[C@@H]2[C@@H](O)C[C@@]2(C)[C@H]1CC[C@]2(O)C(=O)COC(=O)CCC1CCCC1 [HYDROCORTISONE CYPIONATE] | > 100 µM (inactive) | > 100 µM (inactive) | 72.9 µM (inactive) | > 100 µM (inactive) | > 100 µM (inactive) | 0.0728 µM (active) | > 100 µM (inactive) | > 100 µM (inactive) | 5.83 µM (inactive) | > 100 µM (inactive) | > 100 µM (inactive) | > 100 µM (inactive) |  | > 100 µM (inactive) | > 100 µM (inactive) | > 100 µM (inactive)
Cc1ccc(C(=O)C(C)N)cc1C (stereo not drawn) | > 100 µM (inactive) | > 100 µM (inactive) |  | > 100 µM (inactive) | > 100 µM (inactive) | > 100 µM (inactive) | > 100 µM (inactive) | > 100 µM (inactive) | > 100 µM (inactive) | > 100 µM (inactive) | > 100 µM (inactive) | > 100 µM (inactive) | > 100 µM (inactive) | > 100 µM (inactive) | > 100 µM (inactive) | > 100 µM (inactive)
COc1cc2c(c3oc(-c4ccc5c(c4)OCO5)c(O)c(=O)c13)CCC(C)(C)O2 |  | > 100 µM (inactive) | > 100 µM (inactive) | > 100 µM (inactive) |  | > 100 µM (inactive) | > 100 µM (inactive) |  | > 100 µM (inactive) |  | > 100 µM (inactive) | > 100 µM (inactive) | > 100 µM (inactive) |  | > 100 µM (inactive) | 
O=C(Cc1cc[n+]([O-])cc1)C(=O)Nc1cc(Cl)c(Cl)cc1Cl | > 100 µM (inactive) | > 100 µM (inactive) | > 100 µM (inactive) | > 100 µM (inactive) | > 100 µM (inactive) |  | > 100 µM (inactive) | > 100 µM (inactive) | > 100 µM (inactive) | > 100 µM (inactive) | > 100 µM (inactive) | > 100 µM (inactive) | > 100 µM (inactive) | > 100 µM (inactive) | > 100 µM (inactive) | > 100 µM (inactive)
CCCN(CCCC(NC(C)=O)C(=O)NCc1ccccc1)C(=O)NCCCl (stereo not drawn) | > 100 µM (inactive) | > 100 µM (inactive) | > 100 µM (inactive) | > 100 µM (inactive) | > 100 µM (inactive) | > 100 µM (inactive) | > 100 µM (inactive) | > 100 µM (inactive) |  | > 100 µM (inactive) | > 100 µM (inactive) | > 100 µM (inactive) | > 100 µM (inactive) | > 100 µM (inactive) | > 100 µM (inactive) | > 100 µM (inactive)
COC(=O)C1=CO[C@@H](OC2CC(CO)C(O)C(O)C2O)[C@@H]2[C@@H](C)[C@@H](OC(=O)/C=C/c3ccccc3)[C@@H](O)[C@H]12.COC(=O)C1=CO[C@@H](OC2CC(CO)C(O)C(O)C2O)[C@@H]2[C@@H](C)[C@@H](OC(=O)c3ccccc3)[C@@H](O)[C@H]12 (stereo partly drawn) | > 100 µM (inactive) | > 100 µM (inactive) | > 100 µM (inactive) | > 100 µM (inactive) | > 100 µM (inactive) | > 100 µM (inactive) | > 100 µM (inactive) | > 100 µM (inactive) | > 100 µM (inactive) | > 100 µM (inactive) | > 100 µM (inactive) | > 100 µM (inactive) |  | > 100 µM (inactive) | > 100 µM (inactive) | 
O=C1/C(=C/c2cccc([N+](=O)[O-])c2)COc2ccc(Br)cc21 | > 100 µM (inactive) | > 100 µM (inactive) | 17.7 µM (inactive) | 26.9 µM (inactive) | > 100 µM (inactive) |  | > 100 µM (inactive) | > 100 µM (inactive) | > 100 µM (inactive) | > 100 µM (inactive) | 90.2 µM (inactive) | > 100 µM (inactive) | > 100 µM (inactive) | > 100 µM (inactive) | 95.5 µM (inactive) | > 100 µM (inactive)
